The record followed here is US9758524B2, “4-imidazopyridazin-1-yl-benzamides as Btk inhibitors” (Merck Sharp & Dohme B.V., priority 2011, dated 2017).

Where two headings read alike, the source gives them in different places.

Assay [1] deals with FynT enzyme (Homo sapiens (Human), UniProt P06241). In words: FynT enzyme activity (IMAP fluorescence polarization assay). The class given is biochemical. Particulars: 60 min pre-incubation, 0.2 μM ATP. Here is the method: FynT enzyme activity is measured using the IMAP (immobilized metal ion affinity-based fluorescence polarization) assay as outlined below.
Chain of FynT enzyme (P06241 other isoform, or with tags, fused parts or gaps): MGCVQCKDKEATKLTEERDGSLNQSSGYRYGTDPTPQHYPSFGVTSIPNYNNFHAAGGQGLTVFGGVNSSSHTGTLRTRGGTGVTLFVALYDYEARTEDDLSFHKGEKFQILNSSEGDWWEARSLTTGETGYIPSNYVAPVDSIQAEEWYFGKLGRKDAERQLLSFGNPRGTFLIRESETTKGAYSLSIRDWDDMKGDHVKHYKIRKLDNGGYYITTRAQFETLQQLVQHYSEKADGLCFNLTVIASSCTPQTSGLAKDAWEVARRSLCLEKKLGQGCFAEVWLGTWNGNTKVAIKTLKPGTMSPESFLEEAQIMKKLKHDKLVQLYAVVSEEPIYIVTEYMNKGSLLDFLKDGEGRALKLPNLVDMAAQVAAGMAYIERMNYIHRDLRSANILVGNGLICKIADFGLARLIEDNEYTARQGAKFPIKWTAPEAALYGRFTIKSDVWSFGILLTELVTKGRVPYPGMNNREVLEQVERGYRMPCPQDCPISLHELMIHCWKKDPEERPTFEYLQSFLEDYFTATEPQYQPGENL
Test compounds and FynT enzyme are pre-incubated 60 minutes at room temperature, before adding 5 μL/well of 400 nM Fluorescin labeled substrate peptide (p34cdc2 substrate peptide, e.g. #R7157/#R7172, Molecular Devices) in KR-buffer. Final peptide substrate concentration in assay is 100 nM. […] Following incubation for 2 h at room temperature the enzyme reaction is stopped by adding 40 μL/well IMAP Progressive Binding Solution (according to suppliers (Molecular Devices) protocol using 75% 1× buffer A and 25% 1× buffer B with 1:600 Progressive Binding Solution). After 60 min incubation at room temperature in the dark the FP signal is read. […] Values are calculated as percentage of the difference in readout (ΔmPi) of the controls with and without ATP. EC50 values are determined by curve fitting of the experimental results using Activity Base.
On the technique in general: Fluorescence polarisation rises when a labelled molecule tumbles more slowly, as on binding a larger partner.

In assay [2] the target is Btk enzyme (His-Btk) (Homo sapiens (Human), UniProt Q06187). In words: Btk enzyme activity (IMAP fluorescence polarization assay).
Chain of Btk enzyme (His-Btk) (Q06187 whole entry): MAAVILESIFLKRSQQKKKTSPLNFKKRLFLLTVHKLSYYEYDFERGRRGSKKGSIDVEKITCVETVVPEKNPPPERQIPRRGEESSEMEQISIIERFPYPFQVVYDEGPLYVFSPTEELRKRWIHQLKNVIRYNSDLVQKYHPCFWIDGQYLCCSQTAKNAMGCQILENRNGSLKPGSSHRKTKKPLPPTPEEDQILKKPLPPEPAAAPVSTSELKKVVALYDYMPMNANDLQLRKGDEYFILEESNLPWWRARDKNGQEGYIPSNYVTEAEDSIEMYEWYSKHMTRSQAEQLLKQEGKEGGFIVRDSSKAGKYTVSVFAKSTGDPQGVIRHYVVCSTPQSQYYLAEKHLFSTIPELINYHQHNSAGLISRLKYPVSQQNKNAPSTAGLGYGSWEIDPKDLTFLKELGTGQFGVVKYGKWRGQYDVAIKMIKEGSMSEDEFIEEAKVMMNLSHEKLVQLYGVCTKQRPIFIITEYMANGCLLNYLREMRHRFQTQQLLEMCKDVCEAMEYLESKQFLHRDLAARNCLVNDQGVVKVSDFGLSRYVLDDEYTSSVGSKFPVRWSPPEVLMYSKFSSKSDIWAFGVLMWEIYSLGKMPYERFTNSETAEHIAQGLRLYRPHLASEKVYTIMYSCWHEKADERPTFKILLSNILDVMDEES
Description: Inhibition of kinase activity can be measured using the Immobilized Metal Assay for Phosphochemicals (IMAP) assay. IMAP is a homogeneous fluorescence polarization (FP) assay based on affinity capture of phosphorylated peptide substrates. IMAP uses fluorescein-labeled peptide substrates that, upon phosphorylation by a protein kinase, bind to so-called IMAP nanoparticles, which are derivatized with trivalent metal complexes.
Final peptide substrate concentration in assay is 50 nM.
The target of assay [3] is Lyn enzyme (Homo sapiens (Human), UniProt P07948). As to the kind of experiment: Lyn enzyme activity (IMAP fluorescence polarization assay). Particulars: read-out: EC50 Lyn activity values, 60 min pre-incubation, 2 μM ATP, bin bound in μM.
Chain of Lyn enzyme (P07948 whole entry): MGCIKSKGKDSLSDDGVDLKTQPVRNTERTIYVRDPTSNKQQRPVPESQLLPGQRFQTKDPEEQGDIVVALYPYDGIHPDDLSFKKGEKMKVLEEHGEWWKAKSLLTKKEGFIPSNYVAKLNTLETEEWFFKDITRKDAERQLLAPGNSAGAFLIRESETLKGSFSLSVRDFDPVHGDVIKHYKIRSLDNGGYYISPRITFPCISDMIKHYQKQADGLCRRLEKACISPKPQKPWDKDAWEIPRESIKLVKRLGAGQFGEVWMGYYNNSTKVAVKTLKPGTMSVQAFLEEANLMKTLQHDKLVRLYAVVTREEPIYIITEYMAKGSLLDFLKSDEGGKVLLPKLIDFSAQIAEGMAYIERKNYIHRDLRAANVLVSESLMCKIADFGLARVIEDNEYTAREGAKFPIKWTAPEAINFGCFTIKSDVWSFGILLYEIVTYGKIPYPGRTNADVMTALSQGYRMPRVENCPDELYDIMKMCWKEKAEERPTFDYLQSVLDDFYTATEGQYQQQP
The target in assay [4] is Src enzyme (Homo sapiens (Human), UniProt P12931). In words: Src enzyme activity (IMAP fluorescence polarization assay). Particulars: read-out: EC50 Src activity values; IMAP, 60 min pre-incubation, 4 μM ATP.
Chain of Src enzyme (P12931 whole entry, looked up): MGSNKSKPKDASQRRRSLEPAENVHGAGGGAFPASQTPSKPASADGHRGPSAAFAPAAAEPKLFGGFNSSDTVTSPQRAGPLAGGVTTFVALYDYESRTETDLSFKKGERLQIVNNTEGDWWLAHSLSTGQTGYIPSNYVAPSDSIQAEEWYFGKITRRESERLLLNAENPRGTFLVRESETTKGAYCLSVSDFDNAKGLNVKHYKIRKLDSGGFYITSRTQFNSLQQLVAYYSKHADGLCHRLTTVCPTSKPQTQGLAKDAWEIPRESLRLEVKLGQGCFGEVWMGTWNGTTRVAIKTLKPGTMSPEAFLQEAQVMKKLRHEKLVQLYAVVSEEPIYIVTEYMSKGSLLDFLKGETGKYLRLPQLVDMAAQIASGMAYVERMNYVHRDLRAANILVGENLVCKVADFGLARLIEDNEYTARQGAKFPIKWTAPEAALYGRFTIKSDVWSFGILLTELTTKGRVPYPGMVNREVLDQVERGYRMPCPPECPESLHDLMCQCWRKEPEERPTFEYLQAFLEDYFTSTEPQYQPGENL
For assay [5], the target named is Lck enzyme (Homo sapiens (Human), UniProt P06239). As to the kind of experiment: Lck enzyme activity (IMAP fluorescence polarization assay).
Chain of Lck enzyme (P06239 whole entry): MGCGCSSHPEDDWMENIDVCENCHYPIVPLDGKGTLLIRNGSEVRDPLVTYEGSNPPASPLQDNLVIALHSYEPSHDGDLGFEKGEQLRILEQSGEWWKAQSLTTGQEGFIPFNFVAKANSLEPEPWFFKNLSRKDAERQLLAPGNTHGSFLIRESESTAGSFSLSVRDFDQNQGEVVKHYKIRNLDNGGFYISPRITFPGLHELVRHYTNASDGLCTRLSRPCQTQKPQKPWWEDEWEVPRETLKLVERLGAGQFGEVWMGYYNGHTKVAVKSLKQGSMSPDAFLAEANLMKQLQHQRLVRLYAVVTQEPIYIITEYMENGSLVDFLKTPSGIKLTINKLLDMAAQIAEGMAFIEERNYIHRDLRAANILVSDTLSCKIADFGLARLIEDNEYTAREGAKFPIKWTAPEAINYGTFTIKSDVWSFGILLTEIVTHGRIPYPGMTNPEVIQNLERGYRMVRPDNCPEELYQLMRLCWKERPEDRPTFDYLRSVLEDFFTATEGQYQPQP
Setting [6] is: read-out: EC50 Btk activity values, IMAP, 60 min pre-incubation, 5 μM ATP, bin bound in nM.
[7] abbreviates: read-out: EC50 Lck activity values, IMAP, 60 min pre-incubation, 6 μM ATP, bin bound in μM.
[8] abbreviates: IMAP, 60 min pre-incubation, 5 μM ATP, bin bound in nM.

Usually EC50 stands for the midpoint of the concentration-response curve. In the case of `CC#CC(=O)N1CCC[C@H]1c1nc(-c2ccc(C(=O)Nc3cc(CC)ccn3)cc2)c2c(N)nccn12` [Example 131, (S)-4-(8-amino-3-(1-but-2-ynoylpyrrolidin-2-yl)imidazo[1,5-a]pyrazin-1-yl)-N-(4-ethylpyridin-2-yl)benzamide], the EC50 in assay [1] is at least 1000 nM; in assay [2] (setting [6]), under 10 nM; in assay [3], at least 1 µM; in assay [4], at least 1000 nM; in assay [5] (setting [7]), at least 1 µM.

In the case of `C=CC(=O)N1CCC[C@H]1c1nc(-c2ccc(C(=O)Nc3ccccn3)c(F)c2)c2c(N)nccn12` [Example 13, (S)-4-(3-(1-acryloylpyrrolidin-2-yl)-8-aminoimidazo[1,5-a]pyrazin-1-yl)-2-fluoro-N-(pyridin-2-yl)benzamide], the EC50 in assay [1] was at least 1000 nM; in assay [2] (setting [6]) it was under 10 nM; in assay [3], at least 1 µM; in assay [4], at least 1000 nM; in assay [5] (setting [7]) it was at least 1 µM.

Turning to `CN(C)C/C=C/C(=O)N1CCC[C@H]1c1nc(-c2ccc(C(=O)Nc3cc(F)ccn3)cc2)c2c(N)nccn12` [Example 7, (S,E)-4-(8-Amino-3-(1-(4-(dimethylamino)but-2-enoyl)pyrrolidin-2-yl)imidazo[1,5-a]pyrazin-1-yl)-N-(4-fluoropyridin-2-yl)benzamide], the EC50 in assay [1] was at least 1000 nM; in assay [2], 10 to 100 nM; in assay [3], at least 1 µM; in assay [4], at least 1000 nM; in assay [5] (setting [7]), at least 1 µM. Besides, in assay [2] (setting [8]), the “EC50 Btk activity values” was under 100 nM.

As to `C=CC(=O)N1CCC[C@H]1c1nc(-c2ccc(C(=O)Nc3nccs3)cc2)c2c(N)nccn12` [Example 101, (S)-4-(3-(1-acryloylpyrrolidin-2-yl)-8-aminoimidazo[1,5-a]pyrazin-1-yl)-N-(thiazol-2-yl)benzamide], the EC50 is at least 1000 nM in assay [1]; under 10 nM in assay [2] (setting [6]); at least 1 µM in assay [3]; at least 1000 nM in assay [4]; at least 1 µM in assay [5] (setting [7]).

With `C=CC(=O)N1CCCC[C@H]1c1nc(-c2ccc(C(=O)Nc3cc(CCC)ccn3)cc2)c2c(N)nccn12` [Example 61, (S)-4-(3-(1-acryloylpiperidin-2-yl)-8-aminoimidazo[1,5-a]pyrazin-1-yl)-N-(4-propylpyridin-2-yl)benzamide], the EC50 in assay [1] is at least 1000 nM; in assay [2] (setting [6]), under 10 nM; in assay [3], at least 1 µM; in assay [4], at least 1000 nM; in assay [5] (setting [7]) it was at least 1 µM.

As for `CCCc1ccnc(NC(=O)c2ccc(-c3nc([C@@H]4CCCCN4C(=O)/C=C/CN(C)C)n4ccnc(N)c34)cc2OC)c1` [Example 27, (S,E)-4-(8-Amino-3-(1-(4-(dimethylamino)but-2-enoyl)piperidin-2-yl)imidazo[1,5-a]pyrazin-1-yl)-2-methoxy-N-(4-propylpyridin-2-yl)benzamide], the EC50 in assay [1] was at least 1000 nM; in assay [2] (setting [6]) it was under 10 nM; in assay [3], at least 1 µM; in assay [4], at least 1000 nM; in assay [5] (setting [7]) it was at least 1 µM.

Consider `CC#CC(=O)N1CCCC[C@H]1c1nc(-c2ccc(C(=O)Nc3cc(CCC)ccn3)c(OC)c2)c2c(N)nccn12` [Example 110, (S)-4-(8-amino-3-(1-but-2-ynoylpiperidin-2-yl)imidazo[1,5-a]pyrazin-1-yl)-2-methoxy-N-(4-propylpyridin-2-yl)benzamide], for which the EC50 is at least 1000 nM in assay [1]; under 10 nM in assay [2] (setting [6]); at least 1 µM in assay [3]; at least 1000 nM in assay [4]; at least 1 µM in assay [5] (setting [7]).

As for `COC/C=C/C(=O)N1CCC[C@H]1c1nc(-c2ccc(C(=O)Nc3cc(F)ccn3)cc2)c2c(N)nccn12` [Example 53, (S,E)-4-(8-amino-3-(1-(4-methoxybut-2-enoyl)pyrrolidin-2-yl)imidazo[1,5-a]pyrazin-1-yl)-N-(4-fluoropyridin-2-yl)benzamide], the EC50 in assay [1] was at least 1000 nM; in assay [2], 100 to 1000 nM; in assay [3], at least 1 µM; in assay [4] it was at least 1000 nM; in assay [5] (setting [7]), at least 1 µM. Also, the “EC50 Btk activity values” in assay [2] (IMAP, 60 min pre-incubation, 5 μM ATP, bin bound in μM) is under 1000 nM.

Consider `CC#CC(=O)N1CCC[C@H]1c1nc(-c2ccc(C(=O)Nc3ccccn3)c(F)c2)c2c(N)nccn12` [Example 50, (S)-4-(8-amino-3-(1-but-2-ynoylpyrrolidin-2-yl)imidazo[1,5-a]pyrazin-1-yl)-2-fluoro-N-(pyridin-2-yl)benzamide], for which the 50% effective concentration (EC50) in assay [1] is at least 1000 nM; in assay [2], 10 to 100 nM; in assay [3] it was at least 1 µM; in assay [4], at least 1000 nM; in assay [5] (setting [7]) it was at least 1 µM. For the same compound, in assay [2] (setting [8]), the “EC50 Btk activity values” is under 100 nM.

For `CC#CC(=O)N1CCCC[C@H]1c1nc(-c2ccc(C(=O)Nc3cc(CCC)ccn3)c(F)c2)c2c(N)nccn12` [Example 67, (S)-4-(8-amino-3-(1-but-2-ynoylpiperidin-2-yl)imidazo[1,5-a]pyrazin-1-yl)-2-fluoro-N-(4-propylpyridin-2-yl)benzamide], the 50% effective concentration (EC50) in assay [1] was at least 1000 nM; in assay [2] (setting [6]), under 10 nM; in assay [3], at least 1 µM; in assay [4], at least 1000 nM; in assay [5] (setting [7]), at least 1 µM.

For the compound `COCC#CC(=O)N1CCC[C@H]1c1nc(-c2ccc(C(=O)Nc3ccccn3)cc2)c2c(N)nccn12` [Example 41, (S)-4-(8-Amino-3-(1-(4-methoxybut-2-ynoyl)pyrrolidin-2-yl)imidazo[1,5-a]pyrazin-1-yl)-N-(pyridin-2-yl)benzamide], the EC50 is at least 1000 nM in assay [1]; 10 to 100 nM in assay [2]; at least 1 µM in assay [3]; at least 1000 nM in assay [4]; at least 1 µM in assay [5] (setting [7]). The “EC50 Btk activity values” in assay [2] (setting [8]) is under 100 nM.

Turning to `Nc1nccn2c([C@@H]3CCCN3C(=O)C#CC3CC3)nc(-c3ccc(C(=O)Nc4ccccn4)cc3)c12` [Example 35, (S)-4-(8-Amino-3-(1-(3-cyclopropylpropioloyl)pyrrolidin-2-yl)imidazo[1,5-a]pyrazin-1-yl)-N-(pyridin-2-yl)benzamide], the EC50 was at least 1000 nM in assay [1]; under 10 nM in assay [2] (setting [6]); at least 1 µM in assay [3]; at least 1000 nM in assay [4]; at least 1 µM in assay [5] (setting [7]).

For `C=CC(=O)N1CCC[C@H]1c1nc(-c2ccc(C(=O)Nc3ccccn3)c(OC)c2)c2c(N)nccn12` [Example 14, (S)-4-(3-(1-Acryloylpyrrolidin-2-yl)-8-aminoimidazo[1,5-a]pyrazin-1-yl)-2-methoxy-N-(pyridin-2-yl)benzamide], the EC50 in assay [1] was at least 1000 nM; in assay [2] (setting [6]), under 10 nM; in assay [3] it was at least 1 µM; in assay [4], at least 1000 nM; in assay [5] (setting [7]), at least 1 µM.

For `CC#CC(=O)N1CCC[C@H]1c1nc(-c2ccc(C(=O)Nc3cc(-c4ccccc4)ccn3)cc2)c2c(N)nccn12` [Example 132, (S)-4-(8-amino-3-(1-but-2-ynoylpyrrolidin-2-yl)imidazo[1,5-a]pyrazin-1-yl)-N-(4-phenylpyridin-2-yl)benzamide], the concentration for a half-maximal effect (EC50) in assay [1] is at least 1000 nM; in assay [2] (setting [6]), under 10 nM; in assay [3], at least 1 µM; in assay [4], at least 1000 nM; in assay [5] it was 0.1 to 1 µM. The “EC50 Lck activity values” in assay [5] (IMAP, 60 min pre-incubation, 6 μM ATP, bin bound in μM) was under 1 µM.

Regarding `COC/C=C/C(=O)N1CCOC[C@H]1c1nc(-c2ccc(C(=O)Nc3ccccn3)cc2)c2c(N)nccn12` [Example 120, (R,E)-4-(8-amino-3-(4-(4-methoxybut-2-enoyl)morpholin-3-yl)imidazo[1,5-a]pyrazin-1-yl)-N-(pyridin-2-yl)benzamide], the EC50 in assay [1] was at least 1000 nM; in assay [2] (setting [6]) it was under 10 nM; in assay [3] it was at least 1 µM; in assay [4], at least 1000 nM; in assay [5] (setting [7]) it was at least 1 µM.

With `COC/C=C/C(=O)N1CCC[C@H]1c1nc(-c2ccc(C(=O)Nc3cc(C(C)C)ccn3)cc2)c2c(N)nccn12` [Example 58, (S,E)-4-(8-amino-3-(1-(4-methoxybut-2-enoyl)pyrrolidin-2-yl)imidazo[1,5-a]pyrazin-1-yl)-N-(4-isopropylpyridin-2-yl)benzamide], the concentration for a half-maximal effect (EC50) in assay [1] was at least 1000 nM; in assay [2], 10 to 100 nM; in assay [3] it was at least 1 µM; in assay [4], at least 1000 nM; in assay [5] (setting [7]), at least 1 µM. Also, in assay [2] (setting [8]), the “EC50 Btk activity values” is given as under 100 nM.

`Nc1nccn2c([C@@H]3CCCN3C(=O)c3cc(Cl)ncn3)nc(-c3ccc(C(=O)Nc4ccccn4)cc3)c12` [Example 33, (S)-4-(8-Amino-3-(1-(6-chloropyrimidine-4-carbonyl)pyrrolidin-2-yl)imidazo[1,5-a]pyrazin-1-yl)-N-(pyridin-2-yl)benzamide]: the EC50 in assay [1] is at least 1000 nM; in assay [2] (setting [6]) it was under 10 nM; in assay [3], at least 1 µM; in assay [4] it was at least 1000 nM; in assay [5] (setting [7]), at least 1 µM.
